Structures are written as SMILES.

The assay has as its target T1, human M4 receptor (Homo sapiens, UniProt P08173).
T1 construct: expressed in transfected cells; host or cells: CHO cells
T1 sequence (P08173 1-479): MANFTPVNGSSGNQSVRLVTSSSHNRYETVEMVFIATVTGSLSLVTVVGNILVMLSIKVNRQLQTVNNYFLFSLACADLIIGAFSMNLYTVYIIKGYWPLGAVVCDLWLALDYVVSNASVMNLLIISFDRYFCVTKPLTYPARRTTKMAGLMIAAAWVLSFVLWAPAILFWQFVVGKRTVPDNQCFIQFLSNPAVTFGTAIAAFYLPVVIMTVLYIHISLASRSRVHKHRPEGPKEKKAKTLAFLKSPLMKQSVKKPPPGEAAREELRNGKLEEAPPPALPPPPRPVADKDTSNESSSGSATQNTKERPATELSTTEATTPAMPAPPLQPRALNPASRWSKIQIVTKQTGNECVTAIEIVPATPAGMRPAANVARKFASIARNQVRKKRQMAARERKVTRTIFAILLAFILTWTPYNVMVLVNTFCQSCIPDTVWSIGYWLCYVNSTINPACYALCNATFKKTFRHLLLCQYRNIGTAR
The experiment in a line: Radioligand ([3H]N-methylscopolamine) binding assay, membranes from CHO cells expressing human M4 receptor. Particulars: Ki against human M4 receptor; membranes from CHO cells; tritiated N-methylscopolamine 1.5 nM; read-out: K. The procedure: Binding affinity (Ki) for the compounds was measured by inhibition of radioligand binding to membranes from CHO cells expressing human M4 receptor. Membranes were prepared by nitrogen cavitation and differential centrifugation as previously described (Hoare et al., Mol. Pharmacol. 2003 March; 63(3): 751-65). The radioligand employed was tritiated N-methylscopolamine, used at a concentration of 1.5 nM. A dose-response of twelve concentrations of compound was used, ranging from […]. The assay buffer was 50 mM HEPES, 100 mM NaCl, 5 mM MgCl2, 1 mM ethylenediaminetetraacetic acid, pH-adjusted to pH 7.4. Membranes, radioligand and compound were incubated together for 90 minutes at 37° C., in a total volume of 150 μL in a 96-well plate. Receptor-bound radioligand was then collected by harvesting the assay over glass fiber filters pretreated with polyethylenimine to trap the cell membranes, using rapid vacuum filtration. Harvesting and radioactivity counting was conducted as previously described (see, e.g., Hoare et al., Mol. Pharmacol. 2003 63(3):751-65); Erratum at Mol. Pharmacol. 2005 July; 68(1): 260).
As to `C[C@@H]1CN(c2cnc(C(F)(F)F)cn2)C[C@@H](C)N1C(=O)OC1CC2(C1)CN(Cc1ccc(F)cc1)C2` [Compound 398, 2-[(4-fluorophenyl)methyl]-2-azaspiro[3.3]heptan-6-yl (2R,6R)-2,6-dimethyl-4-[5-(trifluoromethyl)pyrazin-2-yl]piperazine-1-carboxylate], the Ki fell in the range of 10 to 100 nM. With `C[C@@H]1CN(c2ncc(C#N)cn2)C[C@H](C)N1C(=O)OC1CC2(C1)CN(Cc1ccccc1)C2` [Compound 130, 2-Benzyl-2-azaspiro[3.3]heptan-6-yl (2R,6S)-4-(5-cyanopyrimidin-2-yl)-2,6-dimethylpiperazine-1-carboxylate] the figure was 10 to 100 nM; with `C[C@@H]1CN(c2cnc3ccccc3n2)C[C@H](C)N1C(=O)NC1CC2(C1)CN(Cc1ccccc1)C2` [Compound 214, (2R,6S)-N-{2-benzyl-2-azaspiro[3.3]heptan-6-yl}-2,6-dimethyl-4-(quinoxalin-2-yl)piperazine-1-carboxamide], 10 to 100 nM; with `CC(=O)Nc1ccc(CN2CC3(CC(NC(=O)N4[C@H](C)CN(c5ncc(C(F)(F)F)cn5)C[C@@H]4C)C3)C2)cc1` [Compound 321, (2R,6S)-N-{2-[(4-acetamidophenyl)methyl]-2-azaspiro[3.3]heptan-6-yl}-2,6-dimethyl-4-[5-(trifluoromethyl)pyrimidin-2-yl]piperazine-1-carboxamide], 100 to 1000 nM. With `C[C@@H]1CN(C(=O)NC2CC3(C2)CN(Cc2ccccc2)C3)[C@@H](C)CN1c1ncc(C(F)(F)F)cn1` [Compound 36, (2S,5R)-N-{2-benzyl-2-azaspiro[3.3]heptan-6-yl}-2,5-dimethyl-4-[5-(trifluoromethyl)pyrimidin-2-yl]piperazine-1-carboxamide] the figure was 10 to 100 nM; with `C[C@@H]1CN(c2nc3ccc(C(F)(F)F)cc3s2)CCN1C(=O)NC1CC2(C1)CN(Cc1ccccc1)C2` [Compound 225, (2R)-N-{2-bnezyl-2-azaspiro[3.3]heptan-6-yl}-2-methyl-4-[6-(trifluoromethyl)-1,3-benzothiazol-2-yl]piperazine-1-carboxamide], below 10 nM; with `Cc1cc(N2C[C@@H](C)N(C(=O)OC3CC4(C3)CN(Cc3ccccc3)C4)[C@@H](C)C2)ccc1F` [Compound 525, 2-benzyl-2-azaspiro[3.3]heptan-6-yl (2R,6S)-4-(4-fluoro-3-methylphenyl)-2,6-dimethylpiperazine-1-carboxylate], 10 to 100 nM. With `C[C@@H]1CN(c2ncc(C(F)(F)F)cn2)[C@@H](C)CN1C(=O)OC1CC2(C1)CN(Cc1ccc(S(C)(=O)=O)cc1)C2` [Compound 501, 2-[(4-methanesulfonylphenyl)methyl]-2-azaspiro[3.3]heptan-6-yl (2R,56S)-2,5-dimethyl-4-[5-(trifluoromethyl)pyrimidin-2-yl]piperazine-1-carboxylate] the figure was 100 to 1000 nM; with `C[C@@H]1CN(c2ncc(OCC3CCC3)cn2)C[C@H](C)N1C(=O)OC1CC2(C1)CN(Cc1ccccc1)C2` [Compound 530, 2-benzyl-2-azaspiro[3.3]heptan-6-yl (2R,6S)-4-[5-(cyclobutylmethoxy)pyrimidin-2-yl]-2,6-dimethylpiperazine-1-carboxylate], below 10 nM.

Turning to `C[C@@H]1CN(c2ncc(C(F)(F)F)cn2)C[C@H](C)N1C(=O)NCC1CC2(C1)CN(Cc1ccccc1)C2` [Compound 97, (2R,6S)-N-({2-benzyl-2-azaspiro[3.3]heptna-6-yl}methyl)-2,6-dimethyl-4-[5-(trifluoromethyl)pyrimidin-2-yl]piperazine-1-carboxamide], the Ki fell in the range of 10 to 100 nM. With `C[C@@H]1CN(c2nc3ccc(C(F)(F)F)cc3s2)[C@@H](C)CN1C(=O)OC1CC2(C1)CN(Cc1ccc(F)cc1)C2` [Compound 386, 2-[(4-fluorophenyl)methyl]-2-azaspiro[3.3]heptan-6-yl (2R,5S)-2,5-dimethyl-4-[6-(trifluoromethyl)-1,3-benzothiazol-2-yl]piperazine-1-carboxylate] the figure was below 10 nM; with `CSc1nc(N2C[C@@H](C)N(C(=O)OC3CC4(C3)CN(Cc3ccccc3)C4)[C@H](C)C2)ncc1Br` [Compound 170, 2-benzyl-2-azaspiro[3.3]heptan-6-yl (2R,6R)-4-[5-bromo-4-(methylsulfanyl)pyrimidin-2-yl]-2,6-dimethylpiperazine-1-carboxylate], 10 to 100 nM; with `C[C@@H]1CN(c2cnc(C(F)(F)F)cn2)CCN1C(=O)NC1CC2(C1)CN(Cc1ccc(Cl)cc1)C2` [Compound 261, (2R)-N-{2-[(4-chlorophenyl)methyl]-2-azaspiro[3.3]heptan-6-yl}-2-methyl-4-[5-(trifluoromethyl)pyrazin-2-yl]piperazine-1-carboxamide], 10 to 100 nM. For the compound `COc1ccc2nc(N3C[C@@H](C)N(C(=O)OC4CC5(C4)CN(Cc4ccc(F)cc4)C5)[C@@H](C)C3)cnc2c1` [Compound 395, 2-[(4-fluorophenyl)methyl]-2-azaspiro[3.3]heptan-6-yl (2R,6S)-4-(6-methoxyquinoxalin-2-yl)-2,6-dimethylpiperazine-1-carboxylate], the Ki was 10 to 100 nM. Under `C[C@@H]1CN(c2nc3ccc(F)cc3s2)C[C@@H](C)N1C(=O)OC1CC2(C1)CN(Cc1ccccc1)C2` [Compound 369, 2-benzy-2-azaspiro[3.3]heptan-6-yl (2R,6R)-4-(6-fluoro-1,3-benzothiazol-2-yl)-2,6-dimethylpiperazine-1-carboxylate] stands 10 to 100 nM; under `C[C@@H]1CN(c2ncc3ccccc3n2)[C@@H](C)CN1C(=O)NC1CC2(C1)CN(Cc1ccccc1)C2` [Compound 212, (2R,5S)-N-{2-benzyl-2-azaspiro[3.3]heptan-6-yl}-2,5-dimethyl-4-(quinazolin-2-yl)piperazine-1-carboxamide], below 10 nM; under `C[C@@H]1CN(c2nc3ccc(C(F)(F)F)cc3s2)C[C@H](C)N1C(=O)OC1CC2(C1)CN(Cc1ccccc1)C2` [Compound 364, 2-benzyl-2-azaspiro[3.3]heptan-6-yl (2R,6S)-2,6-dimethyl-4-[6-(trifluoromethyl)-1,3-benzothiazol-2-yl]piperazine-1-carboxylate], below 10 nM. With `C[C@@H]1CN(c2ncc(OC(F)(F)F)cn2)C[C@H](C)N1C(=O)OC1CC2(C1)CN(Cc1ccccc1)C2` [Compound 498, 2-benzyl-2-azaspiro[3.3]heptan-6-yl (2R,6S)-2,6-dimethyl-4-[5-(trifluoromethoxy)pyrimidin-2-yl]piperazine-1-carboxylate] the figure was below 10 nM; with `C[C@@H]1CN(c2cnc(C(F)(F)F)cn2)[C@@H](C)CN1C(=O)OC1(C(F)F)CC2(CN(Cc3ccccc3)C2)C1` [Compound 347, 2-benzyl-6-(difluoromethyl)-2-azaspiro[3.3]heptan-6-yl (2R,5S)-2,5-dimethyl-4-[5-(trifluoromethyl)pyrazin-2-yl]piperazine-1-carboxylate], 100 to 1000 nM; with `COc1ccc(CN2CC3(CC(NC(=O)N4[C@H](C)CN(c5ncc(C(F)(F)F)cn5)C[C@@H]4C)C3)C2)cn1` [Compound 305, (2R,6S)-N-{2-[(6-methoxypyridin-3-yl)methyl]-2-azaspiro[3.3]heptan-6-yl}-2,6-dimethyl-4-[5-(trifluoromethyl)pyrimidin-2-yl]piperazine-1-carboxamide], 10 to 100 nM.

The record behind these values is patent US20230129359A1, “MUSCARINIC RECEPTOR 4 ANTAGONISTS AND METHODS OF USE” (Neurocrine Biosciences, Inc., priority 2020, published 2023).
